Here are results for 27 compounds from patent publication US20210009542A1 (Calico Life Sciences LLC, priority 2018, published 2021).

Each structure is given as a SMILES string.

This experiment concerns the target T1, His tagged PTPN2 (TC45) protein (Homo sapiens, UniProt P17706).
T1 construct: made in house
T1 sequence (P17706 with tags, fused parts or gaps isoform P17706-2): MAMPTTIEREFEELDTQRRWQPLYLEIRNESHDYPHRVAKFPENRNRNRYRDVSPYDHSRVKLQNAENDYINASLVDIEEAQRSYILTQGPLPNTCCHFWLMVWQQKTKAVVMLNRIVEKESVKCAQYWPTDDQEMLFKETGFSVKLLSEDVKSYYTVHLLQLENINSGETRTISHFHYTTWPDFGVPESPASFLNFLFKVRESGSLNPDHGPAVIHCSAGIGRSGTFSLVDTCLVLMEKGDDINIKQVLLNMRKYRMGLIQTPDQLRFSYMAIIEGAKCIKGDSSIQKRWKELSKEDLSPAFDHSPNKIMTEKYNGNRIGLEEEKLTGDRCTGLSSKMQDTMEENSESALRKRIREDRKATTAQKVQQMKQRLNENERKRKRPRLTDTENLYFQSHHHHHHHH
Kind of experiment: Mobility shift assay (MSA) for potency of PTPN2 inhibitors. Type of experiment: biochemical. To be noted: read-out: PTPN2 MSA IC50. Here is the method: Compound activity was determined using in house His tagged PTPN2 (TC45) protein (SEQ ID NO: 1) in an in vitro enzymatic reaction. The enzymatic assay used to determine activity was a mobility shift assay using a LabChip EZ Reader by Caliper Life Sciences. The enzymatic reaction was carried out in assay buffer (50 mM HEPES pH 7.5, 1 mM EGTA, 10 mM EDTA, 0.01% Tween® 20, and 2 mM DTT). The compounds were dispensed on a white 384 well ProxiPlate™ (PerkinElmer Catalog #6008289) plate using the Labcyte Echo at varying concentrations (12 point, 1:3 dilution). The enzyme (at 0.5 nM) was incubated with compound for 10 minutes at room temperature. Then the substrate (phosphorylated insulin receptor probe sequence: ((OG488)-(NH—CH2—CH2—O—CH2—CH2—O—CH2—CO)-T-R-D-I-(PY)-E-T-D-Y-Y-R-K-K-NH2) (SEQ ID NO: 2) was added at […] to the plates and incubated for another 10 minutes at room temperature. Finally, a quench solution (water and 4-bromo-3-(2-oxo-2-propoxyethoxy)-5-(3-{[1-(phenylmethanesulfonyl)piperidin-4-yl]amino}phenyl)thiophene-2-carboxylic acid) was added to the plates, which were then run on the EZ Reader (excitation 488 nm, emission 530 nm) to measure % conversion (the amount of phosphorylated substrate which was de-phosphorylated by PTPN2). […] The % inhibition was then used to calculate the IC50 values.
For `Nc1cccc(CS(=O)(=O)N2CC=C(c3ccc4cc(O)c(N5CC(=O)NS5(=O)=O)c(F)c4c3)C2)c1` [Compound 194, 5-(7-{1-[(3-aminophenyl)methanesulfonyl]-2,5-dihydro-1H-pyrrol-3-yl}-1-fluoro-3-hydroxynaphthalen-2-yl)-1λ^6,2,5-thiadiazolidine-1,1,3-trione], the IC50 was below 1 nM. The same measure for `O=C1CN(c2c(O)cc3ccc(CC(F)F)cc3c2F)S(=O)(=O)N1` [Compound 196, 5-[7-(2,2-difluoroethyl)-1-fluoro-3-hydroxynaphthalen-2-yl]-1λ^6,2,5-thiadiazolidine-1,1,3-trione]: 1 to 10 nM; for `O=C1CN(c2c(O)cc3ccc(OCC(F)(F)F)cc3c2F)S(=O)(=O)N1` [Compound 197, 5-[1-fluoro-3-hydroxy-7-(2,2,2-trifluoroethoxy)naphthalen-2-yl]-1λ^6,2,5-thiadiazolidine-1,1,3-trione]: 1 to 10 nM; for `O=C1CN(c2c(O)cc3ccc(NCC4CC4)cc3c2F)S(=O)(=O)N1` [Compound 202, 5-{7-[(cyclopropylmethyl)amino]-1-fluoro-3-hydroxynaphthalen-2-yl}-1λ^6,2,5-thiadiazolidine-1,1,3-trione]: 1 to 10 nM.

With `CC(C)CCCc1ccc2cc(O)c(N3CC(=O)NS3(=O)=O)c(F)c2c1` [Compound 219, 5-[1-fluoro-3-hydroxy-7-(4-methylpentyl)naphthalen-2-yl]-1λ^6,2,5-thiadiazolidine-1,1,3-trione], the IC50 is 1 to 10 nM.

Regarding `Cc1c[nH]c(-c2ccc3cc(O)c(N4CC(=O)NS4(=O)=O)c(F)c3c2)n1` [Compound 225, 5-[1-fluoro-3-hydroxy-7-(4-methyl-1H-imidazol-2-yl)naphthalen-2-yl]-1λ^6,2,5-thiadiazolidine-1,1,3-trione], the IC50 fell in the range of 10 to 100 nM.

`N#CCc1ccc2cc(O)c(N3CC(=O)NS3(=O)=O)c(F)c2c1` [Compound 228, [8-fluoro-6-hydroxy-7-(1,1,4-trioxo-1λ^6,2,5-thiadiazolidin-2-yl)naphthalen-2-yl]acetonitrile]: the IC50 is 1 to 10 nM. With `COCc1ccc2cc(O)c(N3CC(=O)NS3(=O)=O)c(F)c2c1` [Compound 229, 5-[1-fluoro-3-hydroxy-7-(methoxymethyl)naphthalen-2-yl]-1λ^6,2,5-thiadiazolidine-1,1,3-trione] the figure was 10 to 100 nM; with `CC1(COc2ccc3cc(O)c(N4CC(=O)NS4(=O)=O)c(F)c3c2)COC1` [Compound 230, 5-{1-fluoro-3-hydroxy-7-[(3-methyloxetan-3-yl)methoxy]naphthalen-2-yl}-1λ^6,2,5-thiadiazolidine-1,1,3-trione], 1 to 10 nM; with `O=C1CN(c2c(O)c(Br)c3ccc(C4=CCN(S(=O)(=O)C5CC5)C4)cc3c2F)S(=O)(=O)N1` [Compound 231A, 5-{4-bromo-7-[1-(cyclopropanesulfonyl)-2,5-dihydro-1H-pyrrol-3-yl]-1-fluoro-3-hydroxynaphthalen-2-yl}-1λ^6,2,5-thiadiazolidine-1,1,3-trione], 1 to 10 nM. Regarding `O=C1CN(c2c(O)c(Br)c3ccc(-c4ccn(S(=O)(=O)C5CC5)c4)cc3c2F)S(=O)(=O)N1` [Compound 231B, 5-{4-bromo-7-[1-(cyclopropanesulfonyl)-1H-pyrrol-3-yl]-1-fluoro-3-hydroxynaphthalen-2-yl}-1λ^6,2,5-thiadiazolidine-1,1,3-trione], the half-inhibitory concentration (IC50) was 1 to 10 nM. With `COc1ccc2cc(O)c(N3CC(=O)NS3(=O)=O)c(F)c2c1Cl` [Compound 234, 5-(8-chloro-1-fluoro-3-hydroxy-7-methoxynaphthalen-2-yl)-1λ^6,2,5-thiadiazolidine-1,1,3-trione], the IC50 was 10 to 100 nM. As for `O=C1CN(c2c(O)cc3ccc(C4CC4)cc3c2F)S(=O)(=O)N1` [Compound 236, 5-(7-cyclopropyl-1-fluoro-3-hydroxynaphthalen-2-yl)-1λ^6,2,5-thiadiazolidine-1,1,3-trione], the IC50 fell in the range of 1 to 10 nM.

On to `C=C(c1ccc2cc(O)c(N3CC(=O)NS3(=O)=O)c(F)c2c1)c1c(C)c(C)c(C)c(C)c1C` [Compound 241, 5-{1-fluoro-3-hydroxy-7-[1-(pentamethylphenyl)ethenyl]naphthalen-2-yl}-1λ^6,2,5-thiadiazolidine-1,1,3-trione], for which the IC50 is above 100 nM.

Take `O=C1CN(c2c(O)cc3ccc(CC4CCN(CC(F)(F)F)C4)cc3c2F)S(=O)(=O)N1` (stereo not drawn) [Compound 251, 5-(1-fluoro-3-hydroxy-7-{[1-(2,2,2-trifluoroethyl)pyrrolidin-3-yl]methyl}naphthalen-2-yl)-1λ^6,2,5-thiadiazolidine-1,1,3-trione]: the IC50 lay in the range of 1 to 10 nM. For the compound `CC(C)CN(C)CCOc1ccc2cc(O)c(N3CC(=O)NS3(=O)=O)c(F)c2c1` [Compound 253, 5-(1-fluoro-3-hydroxy-7-{2-[methyl(2-methylpropyl)amino]ethoxy}naphthalen-2-yl)-1λ^6,2,5-thiadiazolidine-1,1,3-trione], the IC50 was in the range of 1 to 10 nM. With `O=C1CN(c2c(O)cc3ccc(C4=CCNC4)cc3c2F)S(=O)(=O)N1` [Compound 265, 5-[7-(2,5-dihydro-1H-pyrrol-3-yl)-1-fluoro-3-hydroxynaphthalen-2-yl]-1λ^6,2,5-thiadiazolidine-1,1,3-trione] the figure was 1 to 10 nM; with `O=C1CN(c2c(O)cc3ccc(-c4cccnc4)cc3c2F)S(=O)(=O)N1` [Compound 266, 5-[1-fluoro-3-hydroxy-7-(pyridin-3-yl)naphthalen-2-yl]-1λ^6,2,5-thiadiazolidine-1,1,3-trione], 1 to 10 nM; with `O=C1CN(c2c(O)cc3ccc(CC4CNC4)cc3c2F)S(=O)(=O)N1` [Compound 267, 5-{7-[(azetidin-3-yl)methyl]-1-fluoro-3-hydroxynaphthalen-2-yl}-1λ^6,2,5-thiadiazolidine-1,1,3-trione], 10 to 100 nM. Consider `O=C(CNc1ccc2cc(O)c(N3CC(=O)NS3(=O)=O)c(F)c2c1)NCCC1CC1` [Compound 268, N-(2-cyclopropylethyl)-2-{[8-fluoro-6-hydroxy-7-(1,1,4-trioxo-1λ^6,2,5-thiadiazolidin-2-yl)naphthalen-2-yl]amino}acetamide], for which the 50% inhibitory concentration (IC50) lay within 1 to 10 nM. Regarding `CNC(=O)CCCOc1ccc2cc(O)c(N3CC(=O)NS3(=O)=O)c(F)c2c1` [Compound 269, 4-{[8-fluoro-6-hydroxy-7-(1,1,4-trioxo-1λ^6,2,5-thiadiazolidin-2-yl)naphthalen-2-yl]oxy}-N-methylbutanamide], the half-inhibitory concentration (IC50) lay within 1 to 10 nM. Consider `CCNC(=O)NCCOc1ccc2cc(O)c(N3CC(=O)NS3(=O)=O)c(F)c2c1` [Compound 270, N-ethyl-N′-(2-{[8-fluoro-6-hydroxy-7-(1,1,4-trioxo-1λ^6,2,5-thiadiazolidin-2-yl)naphthalen-2-yl]oxy}ethyl)urea], for which the IC50 was 1 to 10 nM. With `O=C1CN(c2c(O)cc3ccc(C4=CCN(CC(F)(F)F)CC4)cc3c2F)S(=O)(=O)N1` [Compound 275, 5-{1-fluoro-3-hydroxy-7-[1-(2,2,2-trifluoroethyl)-1,2,3,6-tetrahydropyridin-4-yl]naphthalen-2-yl}-1λ^6,2,5-thiadiazolidine-1,1,3-trione] the figure was 1 to 10 nM; with `O=C(O)CNc1ccc2cc(O)c(N3CC(=O)NS3(=O)=O)c(F)c2c1` [Compound 280, {[8-fluoro-6-hydroxy-7-(1,1,4-trioxo-1λ^6,2,5-thiadiazolidin-2-yl)naphthalen-2-yl]amino}acetic acid], 10 to 100 nM. The same measure for `CS(=O)(=O)N1CCC(Oc2ccc3cc(O)c(N4CC(=O)NS4(=O)=O)c(F)c3c2)CC1` [Compound 284, 5-(1-fluoro-3-hydroxy-7-{[1-(methanesulfonyl)piperidin-4-yl]oxy}naphthalen-2-yl)-1λ^6,2,5-thiadiazolidine-1,1,3-trione]: 1 to 10 nM.

As to `COCCS(=O)(=O)N1CC=C(c2ccc3cc(O)c(N4CC(=O)NS4(=O)=O)c(F)c3c2)C1` [Compound 286, 5-{1-fluoro-3-hydroxy-7-[1-(2-methoxyethanesulfonyl)-2,5-dihydro-1H-pyrrol-3-yl]naphthalen-2-yl}-1λ^6,2,5-thiadiazolidine-1,1,3-trione], the concentration for half-maximal inhibition (IC50) was below 1 nM. Turning to `O=C1CN(c2c(O)cc3ccc(C4=CCN(S(=O)(=O)CCC(F)(F)F)C4)cc3c2F)S(=O)(=O)N1` [Compound 287, 5-{1-fluoro-3-hydroxy-7-[1-(3,3,3-trifluoropropane-1-sulfonyl)-2,5-dihydro-1H-pyrrol-3-yl]naphthalen-2-yl}-1λ^6,2,5-thiadiazolidine-1,1,3-trione], the 50% inhibitory concentration (IC50) was below 1 nM.

One may read the IC50 as the midpoint of a concentration-inhibition curve.
